Measurements from patent US20050009730A1, “Treatment of cns disorders using cns target modulators” (priority 2001, published 2005).
Like-named read-outs stand apart in the source and are kept apart here. Marks after values point to notes of the source that are not given here.

Legend:
[1] = test system: Male Wistar rats; assay: Sleep-wakefulness, locomotor activity and body temperature monitoring (SCORE-2000), treatment at CT-18
[2] = target: Histamine, H2 (Homo sapiens, UniProt P25021); assay: Receptor selectivity binding assay comparison; settings: 1.0E−6
[3] = target: T1, Muscarinic, M2 (Human Recombinant) (Homo sapiens, UniProt P08172); assay: Receptor selectivity binding assay comparison; settings: 1.0E−6
T1 sequence (P08172 1-466): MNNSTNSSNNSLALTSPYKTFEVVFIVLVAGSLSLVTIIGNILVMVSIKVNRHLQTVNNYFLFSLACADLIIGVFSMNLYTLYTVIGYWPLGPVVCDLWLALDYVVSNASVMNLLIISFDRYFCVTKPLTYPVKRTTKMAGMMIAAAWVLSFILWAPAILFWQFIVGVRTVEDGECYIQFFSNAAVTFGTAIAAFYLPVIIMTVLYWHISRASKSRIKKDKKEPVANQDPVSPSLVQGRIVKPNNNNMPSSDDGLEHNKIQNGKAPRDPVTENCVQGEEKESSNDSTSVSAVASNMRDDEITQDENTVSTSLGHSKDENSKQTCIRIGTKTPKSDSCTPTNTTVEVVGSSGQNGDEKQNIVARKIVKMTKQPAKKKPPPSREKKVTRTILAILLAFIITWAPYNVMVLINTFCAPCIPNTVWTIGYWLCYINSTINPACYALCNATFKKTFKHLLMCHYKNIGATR

[4] = target: HERG (Homo sapiens, UniProt Q12809)
[5] = target: Histamine, H1 (Homo sapiens, UniProt P35367); assay: H1 binding assay by displacement of known standards
Protocol: (§1) The following binding assays were performed on the Series 11 compounds described above by displacement of known standards from the H1, M1, M2, and M3 receptors, wherein H1 is a histamine receptor, and M1, M2, and M3 are muscarinic receptors.
The binding studies against the histamine receptor, H1, indicate binding affinity, and therefore the results of the binding assays are an indication of the activity of the compound. […]
The following binding assays were performed on additional compounds described above by displacement of known standards from the H1, M1, M2, and M3 receptors, wherein H1 is a histamine receptor, and M1, M2, and M3 are muscarinic receptors.
The binding assays for H1 was the same as described in Example 10 and the M1, M2, and M3 binding assays are the same as those described in Example 10 for human recombinant expressed cells.

[6] = target: T2, M1 muscarinic receptor (Homo sapiens, UniProt P11229); assay: M1 binding assay by displacement of known standards (Example 11)
T2 sequence (P11229 1-460): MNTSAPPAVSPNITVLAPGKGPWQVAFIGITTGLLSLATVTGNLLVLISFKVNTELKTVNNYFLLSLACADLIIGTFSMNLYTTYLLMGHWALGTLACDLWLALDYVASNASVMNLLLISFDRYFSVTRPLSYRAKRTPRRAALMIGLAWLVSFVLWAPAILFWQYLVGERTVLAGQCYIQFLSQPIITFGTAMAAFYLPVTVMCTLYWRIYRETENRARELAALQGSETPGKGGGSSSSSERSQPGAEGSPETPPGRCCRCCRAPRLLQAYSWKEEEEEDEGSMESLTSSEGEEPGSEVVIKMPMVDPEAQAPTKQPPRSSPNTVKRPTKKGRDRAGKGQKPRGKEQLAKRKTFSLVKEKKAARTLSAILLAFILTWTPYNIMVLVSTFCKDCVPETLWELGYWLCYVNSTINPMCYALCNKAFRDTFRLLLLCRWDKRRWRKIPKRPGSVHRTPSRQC
Protocol: as §1
(§2) In addition, the binding studies against the muscarinic receptors indicate the extent to which the compounds bind the muscarinic receptors, responsible for anti-cholinergic activity of the compound. Binding to muscarinic receptors results in several undesired side effects of many known antihistamines, e.g., dry-mouth. A decrease in the binding of the compounds to the M1-M3 receptors, relative the binding of the compound to the H1 receptor, is an indication of the greater specificity of the compound for the histamine receptor over the muscarinic receptor.

[7] = target: T3, M2 muscarinic receptor (Homo sapiens, UniProt P08172); assay: M2 binding assay by displacement of known standards (Example 11)
T3 sequence (P08172 1-466): T1 sequence (P08172 1-466)
Protocol: as §1, §2

[8] = target: M3 muscarinic receptor (Homo sapiens, UniProt P20309); assay: M3 binding assay by displacement of known standards (Example 11)
Protocol: as §1, §2

[9] = test system: muscarinic receptors; assay: Muscarinic receptor binding, M1, M2 and M3 taken together in the conclusions
Protocol: as §1, §2

[10] = in human blood; cited from earlier work
[11] = read-out: Receptor Binding Data (Ki nM) H1
[12] = 10 mg/kg or 30 mg/kg, intraperitoneal
[13] = 30 mg/kg and 10 mg/kg, intraperitoneal, CT-18

Histamine, H1, sequence (P35367 whole entry): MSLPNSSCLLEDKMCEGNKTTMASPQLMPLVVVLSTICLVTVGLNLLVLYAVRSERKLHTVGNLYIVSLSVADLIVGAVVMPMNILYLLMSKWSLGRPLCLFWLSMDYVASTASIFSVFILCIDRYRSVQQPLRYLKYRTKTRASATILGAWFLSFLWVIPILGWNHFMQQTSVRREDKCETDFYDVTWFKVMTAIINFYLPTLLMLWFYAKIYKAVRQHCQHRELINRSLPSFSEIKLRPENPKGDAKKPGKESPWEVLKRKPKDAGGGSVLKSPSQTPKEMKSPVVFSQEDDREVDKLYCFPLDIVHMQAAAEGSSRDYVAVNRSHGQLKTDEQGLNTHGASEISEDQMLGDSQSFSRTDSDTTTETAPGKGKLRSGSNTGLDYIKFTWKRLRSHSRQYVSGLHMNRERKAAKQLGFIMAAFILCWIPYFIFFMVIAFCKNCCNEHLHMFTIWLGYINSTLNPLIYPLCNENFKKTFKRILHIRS
M3 muscarinic receptor, sequence (P20309 whole entry): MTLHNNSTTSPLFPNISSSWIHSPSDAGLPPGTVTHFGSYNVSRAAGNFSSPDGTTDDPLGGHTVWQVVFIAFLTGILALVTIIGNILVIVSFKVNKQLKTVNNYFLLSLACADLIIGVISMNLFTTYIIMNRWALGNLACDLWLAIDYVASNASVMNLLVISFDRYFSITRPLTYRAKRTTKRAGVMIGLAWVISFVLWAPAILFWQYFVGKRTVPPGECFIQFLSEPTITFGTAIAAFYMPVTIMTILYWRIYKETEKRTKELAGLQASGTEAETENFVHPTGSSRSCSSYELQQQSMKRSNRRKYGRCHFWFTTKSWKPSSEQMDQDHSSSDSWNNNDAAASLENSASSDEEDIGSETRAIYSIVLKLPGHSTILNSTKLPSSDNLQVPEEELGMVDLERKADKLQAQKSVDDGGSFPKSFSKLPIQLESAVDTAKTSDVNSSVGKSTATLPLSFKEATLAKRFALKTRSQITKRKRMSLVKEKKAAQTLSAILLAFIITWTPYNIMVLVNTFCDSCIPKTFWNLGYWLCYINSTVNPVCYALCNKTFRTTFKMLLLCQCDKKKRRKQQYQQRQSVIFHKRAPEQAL
Histamine, H2, sequence (P25021 whole entry): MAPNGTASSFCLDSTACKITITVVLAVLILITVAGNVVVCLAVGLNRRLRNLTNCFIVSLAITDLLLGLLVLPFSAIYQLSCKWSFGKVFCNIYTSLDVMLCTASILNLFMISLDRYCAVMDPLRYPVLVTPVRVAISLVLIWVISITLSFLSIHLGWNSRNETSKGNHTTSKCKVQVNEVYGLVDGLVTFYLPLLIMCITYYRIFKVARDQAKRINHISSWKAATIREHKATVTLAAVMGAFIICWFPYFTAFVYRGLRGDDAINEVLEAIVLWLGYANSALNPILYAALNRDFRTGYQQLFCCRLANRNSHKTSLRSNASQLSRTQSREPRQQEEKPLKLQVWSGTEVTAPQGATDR
HERG, sequence (Q12809 whole entry): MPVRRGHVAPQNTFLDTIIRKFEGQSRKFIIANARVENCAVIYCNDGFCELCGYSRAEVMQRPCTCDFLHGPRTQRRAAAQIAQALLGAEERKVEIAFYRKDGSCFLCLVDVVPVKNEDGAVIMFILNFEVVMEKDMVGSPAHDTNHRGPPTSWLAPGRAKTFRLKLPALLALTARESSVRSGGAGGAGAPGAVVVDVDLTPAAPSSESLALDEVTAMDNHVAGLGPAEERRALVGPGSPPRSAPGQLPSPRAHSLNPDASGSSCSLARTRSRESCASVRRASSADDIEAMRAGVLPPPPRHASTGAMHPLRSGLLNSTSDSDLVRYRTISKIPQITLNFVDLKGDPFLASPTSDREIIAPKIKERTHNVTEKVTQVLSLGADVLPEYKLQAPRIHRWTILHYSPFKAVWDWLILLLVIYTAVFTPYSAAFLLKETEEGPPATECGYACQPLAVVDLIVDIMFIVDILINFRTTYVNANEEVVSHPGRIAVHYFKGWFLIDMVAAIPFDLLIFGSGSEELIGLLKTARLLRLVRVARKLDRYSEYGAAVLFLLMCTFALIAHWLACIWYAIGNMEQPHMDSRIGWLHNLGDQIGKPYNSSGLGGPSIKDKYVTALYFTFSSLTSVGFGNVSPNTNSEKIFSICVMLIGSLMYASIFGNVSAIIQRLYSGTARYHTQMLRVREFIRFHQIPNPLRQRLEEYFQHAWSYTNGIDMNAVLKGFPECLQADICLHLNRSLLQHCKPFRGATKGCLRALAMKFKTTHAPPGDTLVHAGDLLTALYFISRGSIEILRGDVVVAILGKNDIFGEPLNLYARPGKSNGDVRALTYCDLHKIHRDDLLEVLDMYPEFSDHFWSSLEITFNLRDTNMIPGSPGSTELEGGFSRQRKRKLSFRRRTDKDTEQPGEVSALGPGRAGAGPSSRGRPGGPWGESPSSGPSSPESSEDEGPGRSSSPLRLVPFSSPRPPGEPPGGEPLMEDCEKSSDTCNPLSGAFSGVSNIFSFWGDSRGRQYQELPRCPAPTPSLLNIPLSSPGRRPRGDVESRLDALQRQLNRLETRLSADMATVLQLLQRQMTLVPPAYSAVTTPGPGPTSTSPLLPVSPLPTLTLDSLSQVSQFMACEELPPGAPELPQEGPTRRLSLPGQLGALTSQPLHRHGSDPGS

| SMILES | Ki [5, 11] | Average Bout-Length ([1]; 30 mg/kg PO, at CT-18) | Duration ([1]; 30 mg/kg PO, at CT-18) | Maximum Bout Length ([1]; 30 mg/kg PO, at CT-18) | NREM Accum. ([1]; 30 mg/kg PO, at CT-18) | NREM Peak ([1]; 30 mg/kg PO, at CT-18) | Onset ([1]; 30 mg/kg PO, at CT-18) | IC50 [5] | Ki ([5]; read-out: H1 Ki) | also measured |
| --- | --- | --- | --- | --- | --- | --- | --- | --- | --- | --- |
| Cc1ccc(-c2nc3ccc(C)cn3c2CC(=O)N(C)C)cc1 [Ambien, Zolpidem, reference compound] | – | – | – | – | – | – | – | – | – | Average Bout-Length ([1]; 30 mg/kg IP, at CT-18): 5.8 min; Duration ([1]; 30 mg/kg IP, at CT-18): 3 to 4 h; Maximum Bout Length ([1]; 30 mg/kg IP, at CT-18): 13.1 min; Motor Inhibition ([1]; 30 mg/kg IP, at CT-18): YES; NREM Accum. ([1]; 30 mg/kg IP, at CT-18): 58.7 min; NREM Peak ([1]; 30 mg/kg IP, at CT-18): 58.2 %/hr; Onset ([1]; 30 mg/kg IP, at CT-18): 5 min; REM Inhibition ([1]; 30 mg/kg IP, at CT-18): YES; Rebound Insomnia ([1]; 30 mg/kg IP, at CT-18): YES |
| CN(C)CCC=C1c2ccccc2COc2ccccc21 [Doxepin, reference compound] | – | – | – | – | – | – | – | – | – | Percent Inhibition, Histamine, H2 [2]: 74.7%; Percent Inhibition, Muscarinic, M2 (Human Recombinant) [3]: […]; Percent Inhibition, HERG [4]: 23%** |
| Cl.O=C(O)CCN1CCC(OC(c2ccccc2)c2ccccc2)CC1 [Series 6a, 3-[4-(diphenylmethoxy)piperidin-1-yl]propanoic acid hydrochloride] | 56.1 nM | 7.0 min | 5 h | 12.8 min | 26.5 min | 56.4 %/hr | 65 min | – | – | – |
| O=C(O)CN1CCC(=C2c3ccccc3COc3ccccc32)CC1 [Series 7a] | 55.1 nM | 7.3 min | 5 to 6 h | 16.9 min | 29.5 min | 56.9 %/hr | 130 min | – | – | – |
| Cl.O=C(O)CCN1CCC(=C(c2ccccc2)c2ccccc2)CC1 [Series 11a] | – | 11.2 min | 6 h | 18.7 min | 41.2 min | 67.3 %/hr | 85 min | 308 nM | 119 nM | Rebound Insomnia ([1]; 30 mg/kg PO, at CT-18): Minor |
| CC(C)OC(=O)CCN1CCC(=C(c2ccccc2)c2ccccc2)CC1 [Series 11d, Isopropyl 3-[4-(diphenylmethylidene)piperidin-1-yl]propanoate] | – | 11.0 min | 6 h | 20.1 min | 55.5 min | 58.5 %/hr | 135 min | 378 nM | 147 nM | – |
| CC(C)COC(=O)CCN1CCC(=C(c2ccccc2)c2ccccc2)CC1 [Series 11e, Isobutyl 3-[4-(diphenylmethylidene)piperidin-1-yl]propanoate] | – | 8.3 min | 6 h | 19.1 min | 49.6 min | 59.6 %/hr | 80 min | 718 nM | 279 nM | – |
| O=C(CCN1CCC(=C(c2ccccc2)c2ccccc2)CC1)OC1CCCC1.O=C(O)C(=O)O [Series 11f, Cyclopentyl 3-[4-(diphenylmethylidene)piperidin-1-yl]propanoate, oxalic acid salt] | – | – | – | – | – | – | – | 1070 nM | 416 nM | REM sleep inhibition [1, 12]: did not, however, produce; Rebound Insomnia [1, 12]: did not, however, produce; time post-treatment for which total sleep time was increased [1, 13]: 3 h; total sleep time [1, 13]: significantly increased; cumulative effect on total sleep time (TST) during the initial 5 hours post-treatment, relative to baseline ([1]; 30 mg/kg versus Zolpidem 10 mg/kg): induced more TST than Zolpidem; sleep continuity, as assessed by sleep bout length ([1]; 10 and 30 mg/kg, intraperitoneal, relative to vehicle control): increased sleep continuity; soporific effects ([1]; administered at CT-18, intraperitoneal bolus): robust soporific effects; locomotor activity ([1]; intraperitoneal, CT-18): reduction; sleep inducing effects compared to therapeutic doses of Ambien (Zolpidem) ([1]; intraperitoneal, CT-18): equal or better; increase of sleep time and sleep continuity (sleep bout lengths): dependence on dose ([1]; laboratory rats, 10 and 30 mg/kg): dose-dependent |
| O=C(CCN1CCC(=C(c2ccccc2)c2ccccc2)CC1)O[C@H]1CCOC1 [Series 11g] | – | – | – | – | – | – | – | 196 nM | 86.1 nM | difference in binding affinity towards the H1 receptor between the enantiomeric compounds [5]: do not result in a substantial difference; IC50 [6]: 4680 nM; Ki [6]: 360 nM; IC50 [7]: 5700 nM; Ki [7]: 2080 nM; IC50 [8]: 5710 nM; Ki [8]: 1560 nM; difference in binding affinity towards the muscarinic receptors between the enantiomeric compounds [9]: do show a substantial difference |
| O=C(CCN1CCC(=C(c2ccccc2)c2ccccc2)CC1)OC1CCOC1 (stereo not shown) [Series 11h] | – | – | – | – | – | – | – | 201 nM | 88.3 nM | difference in binding affinity towards the H1 receptor between the enantiomeric compounds [5]: do not result in a substantial difference; difference in binding affinity towards the muscarinic receptors between the enantiomeric compounds [9]: do show a substantial difference |
| O=C(CCN1CCC(=C(c2ccccc2)c2ccccc2)CC1)OC1CCOCC1 [Series 11i] | – | – | – | – | – | – | – | 200 nM | 87.8 nM | – |
| Cc1ccc(/C(=C\CN2CCCC2)c2cccc(C(=O)O)n2)cc1 [Series 16a] | 43.9 nM | 5.4 min | 5 h | 11.8 min | 20.7 min | 57.9 %/hr | 180 min | – | – | – |
| Cl.O=C(O)CCCN1CCC(OC(c2ccccc2)c2ccccc2)CC1 [Series 53a] | 16.1 nM | 4.3 min | 4 h | 9.1 min | 17.4 min | 49.2 %/hr | 30 min | – | – | – |
| O=C(O)CCCN1CCC(=C2c3ccccc3COc3ccccc32)CC1 [Series 73a] | 42.8 nM | 14.5 min | – | 27.6 min | 47.3 min | 62.2 %/hr | 45 min | – | – | – |
| CC(C)(CN1CCC(=C2c3ccccc3COc3ccccc32)CC1)C(=O)O [Series 74a] | 109 nM | 9.9 min | 5 to 6 h | 22.3 min | 43.4 min | 64.4 %/hr | 70 to 80 min | – | – | – |
| CC(C)(CCN1CCC(=C2c3ccccc3COc3ccccc32)CC1)C(=O)O [Series 75a] | 47.9 nM | 6.8 min | 4 h | 13.6 min | 33.9 min | 58.8 %/hr | 70 to 85 min | – | – | Average Bout-Length ([1]; 45 mg/kg PO, at CT-18): 10.8 min; Duration ([1]; 45 mg/kg PO, at CT-18): 5 h; Maximum Bout Length ([1]; 45 mg/kg PO, at CT-18): 19.4 min; NREM Accum. ([1]; 45 mg/kg PO, at CT-18): 33.9 min; NREM Peak ([1]; 45 mg/kg PO, at CT-18): 58.2 %/hr; Onset ([1]; 45 mg/kg PO, at CT-18): 70 to 85 min |
| Nc1ncnc2c1ncn2[C@@H]1O[C@H](CO)[C@@H](O)[C@H]1O [adenosine] | – | – | – | – | – | – | – | – | – | half-life [10]: < 1 s |
| CC(C)OC(=O)CN1CCC(=C2c3ccccc3COc3ccccc32)CC1 [dox7d-oxalate] | 198 nM | 12.9 min | 5 h | 25.0 min | 54.1 min | 76.9 %/hr | 85 min | – | – | – |
